# Patent US4687778A, “Anti-amnestic agent” (Kabushiki Kaisha Yakult Honsha, priority 1984, dated 1987)
# Residues, ends and D or L forms follow the SMILES beside them. *: point of attachment. Cbz = O=C(OCc1ccccc1)*; Boc = CC(C)(C)OC(=O)*; CH2Cl = ClC*
# How the values were obtained:
# [1] = tested on: experimental amnestic rats; assay: passive avoidance response of rats (scopolamine-induced amnesia), retention test; type: in vivo, male Wister SLC rat; conditions: scopolamine 3 mg/kg i.p.
# Description: The method of assay of the anti-amnestic action was carried out according to the method reported by A. Kubota et al. in Int. […] A passive avoidance chamber used in this test was surrounded with inside-visible transparent plastic plates and included an electrifiable grid floor (30 cm in length and 30 cm in width) capable of being derivered with an electric current of 1.7 mA in strength for electric foot shock and a platform (15 cm in length, 15 cm in width and 4 cm in height) placed at the right back corner thereof. A male Wister SLC rat (weighing 100-150 g) was placed in the passive avoidance chamber and, when he stepped down on the floor, the electric current was sent to the grid continuously until he went up on the platform. Repeating this test with another rat, the rats stayed on the platform for more than 15 seconds were taken out of the chamber, being regarded to have learned the situation. This electric shock was normally 2 or 3 times. To avoid any difference in the rats, those required 10 seconds for the first step-down and those stepped down on the floor at least 5 times were excluded. Among the learned or trained rats, the first control group of them were intraperitoneally administered with 0.5% CMC solution and the other groups of them were intraperitoneally administered with scopolamine hydrobromide in a dose of 3 mg/Kg to prepare experimental amnestic rats. The prolinal derivatives of the general formula to be tested were in each case intraperitoneally or orally administered to the rats in an amount shown in Table 1 or 2 one after completion of the learning. In each case, the polinal derivatives are used as having been dissolved or suspended in a 0.5% CMC solution.
# Toxicity test (LD50) = conditions: mouse, in vivo; ip, ICR male mice
# Description: Using 4-weeks-old male ICR mice weighing 15-20 g, the value of LD50 was calculated by orally or intraperitoneally administering the prolinal derivatives to the mice and counting the deceased mice according to the conventional method.
# [2] = tested on: proline-specific endopeptidase (post-proline cleaving enzyme); conditions: cited from earlier work
smiles,measurement,setting,value
"CC(=O)NCC(=O)N1CCC[C@H]1C=O [Acetyl-glycyl-prolinal, acetyl-glycyl-prolinal] (Ac-Gly-Pro-aldehyde)","Retention Test Latency, 24 hr",[1]; 1.3 mg/kg i.p. after training,274.9 s
same,"Retention Test Latency, 48 hr",[1]; 1.3 mg/kg i.p. after training,198.6 s
same,"Retention Test Latency, 24 hr",[1]; 1.3 mg/kg p.o. after training,221.6 s
same,"Retention Test Latency, 48 hr",[1]; 1.3 mg/kg p.o. after training,143.2 s
same,LD50,Toxicity test (LD50),> 1000 mg/kg
"CC(=O)N1CCC[C@H]1C(=O)N1CCC[C@H]1C=O [Acetyl-prolyl-prolinal, acetyl-prolyl-prolinal] (Ac-Pro-Pro-aldehyde)","Retention Test Latency, 24 hr",[1]; 2.3 mg/kg i.p. after training,> 300.0 s
same,"Retention Test Latency, 48 hr",[1]; 2.3 mg/kg i.p. after training,> 300.0 s
same,"Retention Test Latency, 24 hr",[1]; 2.3 mg/kg p.o. after training,204.2 s
same,"Retention Test Latency, 48 hr",[1]; 2.3 mg/kg p.o. after training,177.4 s
same,LD50,Toxicity test (LD50),767 mg/kg
"C[C@H](NC(=O)OCc1ccccc1)C(=O)N1CCC[C@H]1C=O [N--Benzyloxycarbonyl-alanyl-prolinal, N-benzyloxycarbonyl-alanyl-prolinal] (Cbz-Ala-Pro-aldehyde)","Retention Test Latency, 24 hr",[1]; 2.0 mg/kg i.p. after training,189.0 s
same,"Retention Test Latency, 48 hr",[1]; 2.0 mg/kg i.p. after training,203.4 s
same,"Retention Test Latency, 24 hr",[1]; 2.0 mg/kg p.o. after training,165.4 s
same,"Retention Test Latency, 48 hr",[1]; 2.0 mg/kg p.o. after training,155.2 s
same,LD50,Toxicity test (LD50),954 mg/kg
"O=C[C@@H]1CCCN1C(=O)CNC(=O)OCc1ccccc1 [N--Benzyloxycarbonyl-glycyl-prolinal, N-benzyloxycarbonyl-glycyl-prolinal] (Cbz-Gly-Pro-aldehyde)","Retention Test Latency, 24 hr",[1]; 1.9 mg/kg i.p. after training,> 300.0 s
same,"Retention Test Latency, 48 hr",[1]; 1.9 mg/kg i.p. after training,> 300.0 s
same,"Retention Test Latency, 24 hr",[1]; 1.9 mg/kg p.o. after training,230.4 s
same,"Retention Test Latency, 48 hr",[1]; 1.9 mg/kg p.o. after training,175.5 s
same,LD50,Toxicity test (LD50),> 1000 mg/kg
"CC(C)C[C@H](NC(=O)OCc1ccccc1)C(=O)N1CCC[C@H]1C=O [N--Benzyloxycarbonyl-leucyl-prolinal, N-benzyloxycarbonyl-leucyl-prolinal] (Cbz-Leu-Pro-aldehyde)","Retention Test Latency, 24 hr",[1]; 3.5 mg/kg i.p. after training,> 300.0 s
same,"Retention Test Latency, 48 hr",[1]; 3.5 mg/kg i.p. after training,> 300.0 s
same,"Retention Test Latency, 24 hr",[1]; 3.5 mg/kg p.o. after training,281.6 s
same,"Retention Test Latency, 48 hr",[1]; 3.5 mg/kg p.o. after training,219.5 s
same,LD50,Toxicity test (LD50),> 1000 mg/kg
"O=C[C@@H]1CCCN1C(=O)[C@@H]1CCCN1C(=O)OCc1ccccc1 [N--Benzyloxycarbonyl-prolyl-prolinal, N-benzyloxycarbonyl-prolyl-prolinal] (Cbz-Pro-Pro-aldehyde)",LD50,Toxicity test (LD50),> 1000 mg/kg
"CC(C)[C@H](NC(=O)OCc1ccccc1)C(=O)N1CCC[C@H]1C=O [N--Benzyloxycarbonyl-valyl-prolinal, N-benzyloxycarbonyl-valyl-prolinal] (Cbz-Val-Pro-aldehyde)","Retention Test Latency, 24 hr",[1]; 2.2 mg/kg i.p. after training,> 300.0 s
same,"Retention Test Latency, 48 hr",[1]; 2.2 mg/kg i.p. after training,> 300.0 s
same,"Retention Test Latency, 24 hr",[1]; 2.2 mg/kg p.o. after training,254.8 s
same,"Retention Test Latency, 48 hr",[1]; 2.2 mg/kg p.o. after training,210.5 s
same,LD50,Toxicity test (LD50),825 mg/kg
O=C(NCC(=O)N1CCC[C@H]1C(=O)CCl)OCc1ccccc1 [N-benzyloxycarbonylglycyl-L-prolyl-chloromethane] (Cbz-Gly-Pro-CH2Cl),inhibitory action to the endopeptidase,[2],strong inhibitory action
"C[C@H](NC(=O)OC(C)(C)C)C(=O)N1CCC[C@H]1C=O [t-Butyloxycarbonyl-alanyl-prolinal, t-butyloxycarbonyl-alanyl-prolinal] (Boc-Ala-Pro-aldehyde)","Retention Test Latency, 24 hr",[1]; 1.8 mg/kg i.p. after training,293.5 s
same,"Retention Test Latency, 48 hr",[1]; 1.8 mg/kg i.p. after training,250.4 s
same,"Retention Test Latency, 24 hr",[1]; 1.8 mg/kg p.o. after training,239.8 s
same,"Retention Test Latency, 48 hr",[1]; 1.8 mg/kg p.o. after training,226.7 s
same,LD50,Toxicity test (LD50),796 mg/kg
"CC(C)(C)OC(=O)N[C@@H](Cc1ccccc1)C(=O)N1CCC[C@H]1C=O [t-Butyloxycarbonyl-phenylalanyl-prolinal, t-butyloxycarbonyl-phenylalanyl-prolinal] (Boc-Phe-Pro-aldehyde)","Retention Test Latency, 24 hr",[1]; 3.0 mg/kg i.p. after training,> 300.0 s
same,"Retention Test Latency, 48 hr",[1]; 3.0 mg/kg i.p. after training,264.3 s
same,"Retention Test Latency, 24 hr",[1]; 3.0 mg/kg p.o. after training,> 300.0 s
same,"Retention Test Latency, 48 hr",[1]; 3.0 mg/kg p.o. after training,250.2 s
same,LD50,Toxicity test (LD50),> 1000 mg/kg
"CC(C)(C)OC(=O)N[C@@H](CO)C(=O)N1CCC[C@H]1C=O [t-Butyloxycarbonyl-seryl-prolinal, t-butyloxycarbonyl-seryl-prolinal] (Boc-Ser-Pro-aldehyde)","Retention Test Latency, 24 hr",[1]; 2.9 mg/kg i.p. after training,> 300.0 s
same,"Retention Test Latency, 48 hr",[1]; 2.9 mg/kg i.p. after training,> 300.0 s
same,"Retention Test Latency, 24 hr",[1]; 2.9 mg/kg p.o. after training,262.9 s
same,"Retention Test Latency, 48 hr",[1]; 2.9 mg/kg p.o. after training,185.2 s
same,LD50,Toxicity test (LD50),> 1000 mg/kg
"CC(C)(C)OC(=O)N[C@@H](Cc1ccc(O)cc1)C(=O)N1CCC[C@H]1C=O [t-Butyloxycarbonyl-tyrosyl-prolinal, t-butyloxycarbonyl-tyrosyl-prolinal] (Boc-Tyr-Pro-aldehyde)","Retention Test Latency, 24 hr",[1]; 3.6 mg/kg i.p. after training,250.8 s
same,"Retention Test Latency, 48 hr",[1]; 3.6 mg/kg i.p. after training,206.9 s
same,"Retention Test Latency, 24 hr",[1]; 3.6 mg/kg p.o. after training,180.5 s
same,"Retention Test Latency, 48 hr",[1]; 3.6 mg/kg p.o. after training,192.1 s
same,LD50,Toxicity test (LD50),933 mg/kg
